Test results taken from article PMC6148246, “HS-1371, a novel kinase inhibitor of RIP3-mediated necroptosis” (Experimental & Molecular Medicine, 2018).

Assays:
RIP3 [1] = biological target: T1, RIP3 (Homo sapiens, UniProt Q9Y572); assay: Radiometric kinase assay of RIP3 (Reaction Biology); format: biochemical; set-up: purchased Reaction Biology Corp (Malvern, PA, USA); conditions: 10 μM ATP, 20 μM MBP substrate; read-out: IC50 against RIP3
Protocol: The inhibitory activities of all compounds toward RIP3 were measured by Reaction Biology Corp (Malvern, PA, USA) by means of radiometric kinase assays ([…]). The enzymatic activity of RIP3 was monitored using 20 μM of myelin basic protein (MBP) dissolved in freshly prepared reaction buffer (20 mM HEPES (pH 7.5), 10 mM MgCl2, 1 mM EGTA, 0.02% BRIJ-35, 0.02 mg/mL BSA, 0.1 mM Na3VO4, 2 mM DTT, 1% DMSO). Each putative RIP3 inhibitor was dissolved in 100% DMSO at specific concentrations and serially diluted with epMotion 5070 in DMSO. Human RIP3 and 20 μM of peptide substrate (MBP) were added to the reaction buffer. After delivering the candidate inhibitor dissolved in DMSO to the kinase reaction mixture using Acoustic technology (Echo550; nanoliter range), the reaction mixture was incubated for 20 min at room temperature. To initiate the enzymatic reaction, ^33P-ATP with specific activity of 10 μCi/μL was added to the reaction mixture to reach a final ATP concentration of 10 μM. Radioactivity was then monitored using the filter binding method after incubation of the reaction mixture for 2 h at room temperature. At given concentrations of inhibitor, biochemical potency was measured by the percent remaining kinase activity with respect to the vehicle (dimethyl sulfoxide) reaction. Curve fits and IC50 values were then obtained using the PRISM program (GraphPad Software). […]

[2] = test system: RAW264.7 macrophage cells; assay: LPS plus zVAD-induced cytokine expression in RAW264.7 cells (real-time PCR); format: cell-based, mouse; conditions: RAW264.7, LPS + zVAD, 5 and 10 μM, pre 1 h or post 2 h
Protocol: Total RNA was extracted using the TRIzol reagent (Life Technologies) according to the manufacturer’s instructions. Total RNA (1 μg) from each sample was converted to cDNA using MMLV reverse transcriptase (MGmed, Seoul, Korea). Equal amounts of cDNA product were used in reverse transcription-PCR conducted using the GoTaq® Green Master Mix (Promega). Real-time PCR amplification was performed using iQ™ SYBR® Green Supermix (Bio-rad). […]
HeLa, L929, and MEF cells were pretreated with HS-1371 (5 μM) for 2 h, and treated with TNF (30 ng/mL) for indicated time points. Cell lysates were analyzed by immunoblotting. […]
(a) RAW264.7 cells were treated with LPS (1 μg/mL) for indicated time points and cell lysates were analyzed by immunoblotting.
(b) RAW264.7 cells were pretreated with zVAD (20 μM) for 1 h and then treated with LPS (1 μg/mL) for indicated time points. Cell lysates were analyzed by immunoblotting.
(c) IL-6, TNF-α, and IL-1β expression levels were determined by RT-PCR analysis. […]
(d) RAW264.7 cells were pretreated with zVAD (20 μM) and HS-1371 (5 μM) for 1 h and then treated with LPS (1 μg/mL) for 4 h. Cell lysates were analyzed by immunoblotting (left panel).
IL-1β and IL-6 expression levels were determined by real-time PCR analysis. […]
(e) IL-1β, IL-6 and TNF-α expression levels were determined by real -time PCR analysis. […]

RIP3 [3] = biological target: T1, RIP3; assay: Basal S227 auto-phosphorylation of RIP3 in HT-29 cells (immunoblot); format: cell-based; set-up: RIP3-expressing HT-29 cells; endogenous in cells; host or cells: HT-29; conditions: 10 μM, 9 h
Protocol: Cells were rinsed in cold phosphate-buffered saline (PBS) and lysed in M2 buffer containing 20 mM Tris at pH 7, 0.5% NP-40, 250 mM NaCl, 3 mM EDTA, 3 mM EGTA, 2 mM DTT, 0.5 mM PMSF, 20 mM β-glycerol phosphate, 1 mM sodium vanadate, and 1 μg/mL leupeptin. The cell extracts were subjected to western blot analysis. For immunoprecipitation, lysates were mixed and precipitated with antibody and protein A-agarose beads overnight or for 4 h at 4 °C. Bound proteins were removed by boiling in SDS and resolved by SDS-PAGE, and immunoblotting was visualized by enhanced chemiluminescence (ECL, Amersham).
RIP3 kinase activity is essential for TNF-induced necroptosis, and human S227 auto-phosphorylation sites of RIP3 are required for the interaction of RIP3 with its substrate MLKL[13],[14], which is indispensable for downstream necroptotic cell death signaling. To test the possible effects of the RIP3 inhibitors on necroptosis, HT-29 cells were treated with the kinase inhibitors, and RIP3 kinase activity was determined by examining its phosphorylation status.
Fig. 2 Novel inhibitors can block RIP3 S227 phosphorylation. a Western blotting showing various kinase inhibitor effects on RIP3 S227 auto-phosphorylation. HT-29 cells were treated with four tested kinase inhibitors (1308, 1336, 1338, and 1371, 10 μM) for 9 h. As a control, KK5101 (Trk alpha inhibitor) and HS829 (IKK beta inhibitor) were also treated at a concentration of 10 μM for 9 h. Prototypical necroptosis stimuli (TNF + zVAD + either cycloheximide or SMAC mimetic; hereafter referred to as TCZ or TSZ) were applied for 6 h. […] HT-29 cells were treated with 4 tested kinase inhibitors for 24 h, and cell viability was analyzed by MTT assay or phase-contrast microscopy. […] HT-29 cells were pretreated with necrostatin-1 (Nec-1, 40 μM), dabrafenib (DAB, 10 μM) or necrosulfonamide (NSA, 1 μM) for 2 h and then treated with TSZ for 6 h. […] HT-29 cells were pretreated with four tested kinase inhibitors for 2 h and then treated with TSZ for 6 h. Cell lysates were analyzed by immunoblotting. f HT-29 cells were pretreated with Nec-1 (40 μM), DAB (5 μM) or HS-1371 (5 μM) for 2 h and then treated with TSZ for 4 h. Cell lysates were immunoprecipitated with anti-RIP3 antibody. Immunoprecipitates and total lysates were analyzed by Western blotting

T1 sequence (Q9Y572 whole entry): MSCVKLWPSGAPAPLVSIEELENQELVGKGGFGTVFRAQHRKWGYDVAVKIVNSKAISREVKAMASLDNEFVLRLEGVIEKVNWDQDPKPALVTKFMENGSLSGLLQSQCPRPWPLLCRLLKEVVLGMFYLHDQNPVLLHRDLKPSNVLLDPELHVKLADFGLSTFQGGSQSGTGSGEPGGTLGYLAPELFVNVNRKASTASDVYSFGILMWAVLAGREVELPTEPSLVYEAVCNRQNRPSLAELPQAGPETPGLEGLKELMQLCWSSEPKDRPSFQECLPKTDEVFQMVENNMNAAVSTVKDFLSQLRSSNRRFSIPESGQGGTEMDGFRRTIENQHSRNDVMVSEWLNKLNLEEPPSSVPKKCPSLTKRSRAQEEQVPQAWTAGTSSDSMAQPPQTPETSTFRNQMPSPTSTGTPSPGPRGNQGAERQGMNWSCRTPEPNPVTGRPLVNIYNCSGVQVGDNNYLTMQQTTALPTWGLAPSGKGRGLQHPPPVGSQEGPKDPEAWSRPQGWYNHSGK

Cc1ccc(Oc2ccnc3cc(-c4cnn(C5CCNCC5)c4)ccc23)cc1 [HS-1371, 7-(1-(Piperidin-4-yl)-1H-pyrazol-4-yl)-4-(p-tolyloxy)quinoline]
IC50 (RIP3 [1]): 20.8 nM | IL-1β, IL-6 and TNF-α expression [2]: reduced | effect on S227 auto-phosphorylation of RIP3 at the basal level (RIP3 [3]): inhibitory effect
